Entries after “also recorded” stand apart in the source; their conditions may differ.
Columns and labels:
Jurkat cells = assay: Flow cytometry of GFP fluorescence in transduced Jurkat cells; format: cell-based
Protocol: Transduced cells either received no treatment or were treated with 40 μM of biotin for 15 minutes, 60-75 minutes or overnight (0/N).
The RPMI medium was supplemented with 14 μg/mL of avidin to chelate the existing biotin present in the medium.
(§1) After incubation with biotin, the cells were immediately transfer on ice, to inhibit or slow down the traffic of the cargo, followed by centrifugation (300 g, 4° C., 5 minutes), washed twice in cold 1×PBS (300 g, 4° C., 5 minutes) and incubated with live/dead fixable staining (20 minutes, on ice; Thermofisher). The cells were then washed twice in cold PBS (300 g, 4° C., 5 minutes) or FACS buffer (1×PBS, 1% BSA, 0.05% sodium azide, 1 mL EDTA 0.5 M, filtered and kept at 4° C.) and, when not analyzed immediately, the cells were fixed in 3% PFA-1×PBS (10 minutes, RT) and washed twice in 1×PBS.
Transduced cells either received no treatment or were treated with 40 μM of biotin for 6 hours.
Transduction of HEK293FT and Jurkat cells were done using the same volume v/v of particles for each construct increasingly.
The expression of the cytokine was evaluated by measuring GFP using flow cytometry, three days later for HEK293FT and more than six days later for Jurkat cells. […]
For both types of cells, the expression of the cytokine was evaluated by measuring GFP using flow cytometry, 3 days later for HEK293FT and more than 6 days later for Jurkat cells. […]

[1] = system: Primary CD8+ T or CD4/CD8+ T cells; assay: Flow cytometry of GFP fluorescence in transduced primary T cells; format: cell-based, human
Protocol: T cells were isolated from leukocyte reduction system chamber (LRSC) from blood of healthy donors by negative selection using the EasySep Direct Human T cell isolation kit (STEM cells) or MACSxpress LRSC Pan T Cell Isolation Kit, human (Miltenyi) according to the manufacturer's instructions.
Primary CD8^+ T or CD4/CD8^+ T cells were plated into culture plates and transduced with said lentiviral particle at a MOI between 1 and 5 for 3 days.
Primary CD8^+ T or CD4/CD8^+ T cells were plated into culture plates for Flow cytometry assay.
To prevent cytokines released due to the possible presence of biotin in TexMacs buffer, 1 μg/mL of avidin was added to chelate biotin, starting from the day of transduction and following days of cell culture. […]
as §1

HeLa cells [2] = assay: Western blot (GFP revelation) of cell medium and cell extract of transduced HeLa cells; format: cell-based; conditions: 40 μM biotin, 60 minutes or O/N
Protocol: Cells for western blotting were treated either treated or not with 40 μM biotin or higher for 60 minutes or over-night (0/N).
After biotin treatment, the supernatant was recovered and centrifuged for removal of the detached or dead cells at 300 g, 4° C., for 5-10 minutes and kept on ice. While the cells (defined hereafter as pellet) were incubated with protein loading buffer 1×(5 mM Tris-HCl, pH 7.0, 30 mM ethylenediaminetetra acid (EDTA), pH 8.0; 0.01% bromophenol blue, 5% glycerol) for 5 minutes at room temperature, scratched and transfer to a new tube followed by denaturation at 95-100° C. for 10-20 minutes. The supernatant (from adherent or suspension cells) were incubated with StrataClean Resin (Agilent) to collect and concentrate protein present in the supernatant, for at least 2 hours at 4° C. with orbital agitation. […] Cytokines were detected using monoclonal anti-GFP (1/1000; Roche) in 5% skim milk in 0.1% Tween-20 PBS for 1 hour at room temperature or overnight (0/N) at 4° C., followed by the respective horseradish peroxidase (HRP) conjugated secondary polyclonal antibody (1/15000) in 5% skim milk in 0.1% Tween-20 PBS for 1 hour at room temperature. […]

[3] = system: HEK blue IL-2 reporter cell line; assay: Cytokine activity of medium of transduced HeLa cells on reporter cell line HEK blue IL-2; format: cell-based; conditions: no biotin
Protocol: Cells were treated with 40 μM biotin for 0 minute, 15 minutes, 60 minutes, 90 minutes, 120 minutes or 4320 minutes (=72 hours).
After treatment of the cells, the cell medium (1500 μL) was collected and centrifuged (300 g, 4° C., 5-10 minutes) to remove dead cells.
The cell medium of the RUSH-transduced cells was added into a cell culture 96-well plate (flat bottom) at a dilution 1/80 to 1/100 followed by the platting of HEK-Blue cells at approximately 50 000 cells/well. On the next day (after approximately 24 hours), 20 μL of the supernatant of these cells was transferred to a new plate and 180 μL of QUANTI-Blue substrate was added and incubated at 37° C. and 5% of C02 for 1-3 hours. The absorbance was then measured at 620 nm. The response ratio of the cytokines was determined by dividing the value of absorbance of the treated cells by non-treated cells. The values were them normalized to WT cells line.

HeLa cells [4] = assay: Immunofluorescence of transduced HeLa cells (GFP/Cherry staining), with or without biotin; format: cell-based; conditions: 40 μM biotin
Protocol: HeLa cells were plated on a cell culture plate and transduced with said lentiviral particle at a MOI between 1 and 5 for 2 days.
Transduced HeLa cells were plated on coverslip for immunofluorescence assay.
Transduced cells either received no treatment or were treated with 40 μM of biotin.
Cells for immunofluorescence assay were either treated or not with 40 μM or higher of biotin for 15 minutes, 75 minutes or 16 hours (steady-state).
Cells coated onto coverslips were washed once in 1×PBS buffer, fixed in 3% of paraformaldehyde (PFA) for 10-15 minutes at room temperature, then washed twice and alternatively incubated with 50 mM of NH4Cl-1×PBS for 5 minutes at room temperature to quench free aldehydes. The cells were then permeabilized using a solution of PBS containing 0.5% Bovine Serum Albumin (BSA) and 0.05% saponin (Saponin, Sigma-Aldrich) for 15 minutes at room temperature. The coverslips were mounted in Mowiol supplemented with DAPI (4′,6-diamidino-2-phenylindole) for DNA staining.

CTLL-2 NFκB cells = assay: IL-2-induced proliferation of CTLL-2 NFκB cells; format: cell-based; conditions: medium of transduced HeLa cells
Protocol: The relative proliferation and NFκB response measured by luminescence in CTLL2 NFκB was determined as described by Mock et al. (2020. Sci Rep. 10(1):3234). Briefly, CTLL2 NFκB were starved for about 24 hours, i.e., incubated for 24 hours without IL-2 to reduce the background due to the presence of IL-2 in the medium. After starvation, the cells (approximately 50 000 cells/well) in a cell culture 96-well plate (flat bottom) were incubated with the supernatant of the transduced cells either non-treated or treated with biotin diluted at 1/80 to a final volume of 200 μL. The cells were incubated for 72 hours at 37° C. and 5% of C02.
For CTLL-2 proliferation, CellTiter 96 Aqueous One Solution (Promega) was used according to the manufacturer's instructions. Briefly, 100 μL of the cells medium were removed and 20 μL of CellTiter 96 Aqueous One Solution (Promega) were added and incubated at least for 1 hours at 37° C. and 5% of CO2 before reading the absorbance at 490 nm. The relative proliferation or luminescence was determined by dividing the absorbance of treated cells by non-treated cells.

For “CCL5-SBP-eGFPhibit: RUSH system with CCL5 fused to SBP and to eGFP containing HiBit tag (SEQ ID NO: 604) (VSGWRLFKKIS; HiBit tag)”, the “GFP upon addition of biotin within 6 hours (flow cytometry)” value (Jurkat cells; 40 μM biotin, 6 hours) was “showed a decrease in GFP-expressing cells”, the “Intracellular GFP expression without biotin treatment (flow cytometry)” value (Jurkat cells; no biotin) was “showed a proper intracellular GFP expression” and the “GFP-expressing cells upon addition of biotin” value ([1]; 40 μM biotin) was “decrease of GFP-expressing cells”. For the same substance, the “Efficiency of transduction / T cells expressing the cytokine” value ([1]; absence of biotin) was 6%.
With “SPCCL5-IL-2-SBP-eGFP: RUSH system with Interleukin-2 fused to SBP and eGFP using the signal peptide of CCL5 (SEQ ID NO: 603) (MKVSAAALAVILIATALCAPASA; Signal peptide of CCL5)” the “Cytokine secretion in cell medium upon biotin addition (western blot)” value (HeLa cells [2]) was “the highest secretion was observed after O/N with biotin”, the “Response of the reporter cell line in the absence of biotin” value [3] was “induced a small response by the reporter cell line” and the “Traffic and secretion of the cytokine upon biotin addition (immunofluorescence)” value (HeLa cells [4]) was “After 15 minutes with biotin treatment, the cytokine was localized in the Golgi; also recorded: at 75 minutes, a high percentage of the cytokine still remained in the Golgi; also recorded: At 4 hours, most of the cytokine had been secreted”. The “CTLL-2-NFκB cell proliferation after 4320 minutes of biotin” value (CTLL-2 NFκB cells; biotin 4320 minutes) was “seemed to better sustain cell activation”, the “CTLL-2-NFκB cell proliferation, biotin for more than 60 minutes” value (CTLL-2 NFκB cells; biotin more than 60 minutes) was “a significant increase in cell proliferation was observed” and the “CTLL-2-NFκB cell proliferation in absence of biotin” value (CTLL-2 NFκB cells; no biotin) was “proliferated”.
